From BindingDB's records for doi:10.1016/j.bmc.2010.06.094 (Shahid Beheshti University of Medical Sciences, 2010)

How the values were obtained:
[1] = target: Prostaglandin G/H synthase 1 / COX-1 (Ovis aries) (UniProt P05979); assay: Inhibition of sheep COX1
[2] = target: Prostaglandin G/H synthase 2 / COX-2 (Ovis aries) (UniProt P79208); assay: Inhibition of sheep COX2

Structure (SMILES) | IC50 [1] [µM] | IC50 [2] [µM]
[N-]=[N+]=Nc1ccc(-c2cc(C(=O)O)c3cccc(C(=O)c4ccccc4)c3n2)cc1 [2-(4-azido)phenyl)-8-benzoyl-quinoline-4-carboxylic acid] | 65.5 | 0.057
[N-]=[N+]=Nc1ccc(-c2cc(C(=O)O)c3cc(C(=O)c4ccccc4)ccc3n2)cc1 [2-(4-azido)phenyl)-6-benzoyl-quinoline-4-carboxylic acid] | > 100 | 0.077
CS(=O)(=O)c1ccc(-c2cc(C(=O)O)c3ccccc3n2)cc1 [2-(4-(methylsulfonyl)phenyl)-quinoline-4-carboxylic acid] | 13.4 | –
CC(=O)Nc1ccc(-c2cc(C(=O)O)c3cccc(C(=O)c4ccccc4)c3n2)cc1 [2-(4-acetamido)phenyl)-8-benzoyl-quinoline-4-carboxylic acid] | 9.2 | 0.08
CC(=O)Nc1ccc(-c2cc(C(=O)O)c3cc(C(=O)c4ccccc4)ccc3n2)cc1 [2-(4-acetamido)phenyl)-6-benzoyl-quinoline-4-carboxylic acid] | 21.8 | 0.085

The next lines start with the values.

IC50 [1] [µM] | IC50 [2] [µM] | Structure (SMILES)
24.4 | 0.077 | CS(=O)(=O)c1ccc(-c2cc(C(=O)O)c3cc(C(=O)c4ccccc4)ccc3n2)cc1 [6-benzoyl-2-(4-(methylsulfonyl)phenyl)quinoline-4-carboxylic acid]
15.9 | 0.069 | CS(=O)(=O)c1ccc(-c2cc(C(=O)O)c3cccc(C(=O)c4ccccc4)c3n2)cc1 [8-benzoyl-2-(4-(methylsulfonyl)phenyl)quinoline-4-carboxylic acid]
